In patent publication US9511072B2, “Methods of modulating cell proliferation and cyst formation in polycystic kidney and liver diseases” (The Medical College of Wisconsin, Inc., priority 2006, dated 2016):

Legend:
20-HETE = settings: cited from earlier work
REC11 cells = experiment: BrdU proliferation of EGF-stimulated REC11 cystic renal epithelial cells; assay type: cell-based, mouse; settings: 10 μM, 36 hrs, after EGF 25 ng/ml for 6 hours
Source text: REC11 cystic cell line is a conditionally immortalized epithelial collecting tubule (CT) cell line derived from the cystic kidneys of the BPK mouse model of human ARPKD crossed to the ImmortoMouse. The BPK mouse as a human ARPKD model has been described in Nauta J. et al., Pediatr Nephrol 1993, 7:163-172 and Nauta J. et al., Pediatr Res 1995, 37:755-763. The procedures for immortalization, cell isolation, cell culture and the complete phenotypic characterization of this cell line have been described in detail in Sweeney W. E. et al., Am J Physiol C Physiol 2001, 281:C1695-705. All analysis and experiments were performed on REC11 cells grown for a minimum 6 days under non-permissive conditions to eliminate residual Large T.
Proliferation of REC11 cells was stimulated by exposure of the cells for 6 hours with EGF (25 ng/ml). Next, the cells were treated with vehicle, HET0016 (10 μM, a 20-HETE synthesis inhibitor), HET0016 (20 μM), DDMS (10 μM, a 20-HETE synthesis inhibitor), or WIT-002 (10 μM, a 20-HETE antagonist) for 36 hrs, pulsed with BrdU, and then stained for BrdU labeled cells to determine the degree of cell proliferation. […] Cells treated with a higher dose of HET0016 (20 μM) (column C) reduced proliferation by 75% (p<0.020). Cells treated with another chemically dissimilar inhibitor of the synthesis of 20-HETE, DDMS (10 μM) (column D), reduced proliferation by 47% (p<0.05). Cells treated with WIT-002 (10 μM) (column E) reduced proliferation by 25%.

cystic BPK cells = experiment: BrdU incorporation in cystic BPK cells; assay type: cell-based, mouse; settings: 10 μM, 36 hours; vehicle 118
Procedure: To determine the level of proliferation in the cystic BPK cells, chemically dissimilar inhibitors of cytochrome P450 4A (CYP4A) and 4F (CYP4F) inhibitors, specifically HET-0016 (10 and 20 μM) and DDMS (10 μM), were incubated for 36 hours with the BPK cells. Three hours prior to the harvesting of the cells, 5-bromo-2′-deoxyuridine (BrdU) at a concentration of 30 μM was added to determine the level of cell cycle inhibition. The cells were subsequently methanol fixed and BrdU-positive cells were identified by immunohistology with biotinylated monoclonal anti-BrdU antibody (Zymed, South San Francisco, Calif.). Data were expressed as the percentage of BrdU-labeled cells per 500 counted cells.

Compound	20-HETE levels in vivo (20-HETE)	reduction of proliferation (BrdU labeled cells) vs vehicle (REC11 cells) [%]	BrdU-positive cells per 500 total cells counted (cystic BPK cells)
Nn1nnc2ccccc21 [Compound 1-ABT, 1-aminobenzotriazole]	reduce 20-HETE levels in vivo		
C#CCCCCCCCCCCCCCCCC(=O)O [Compound 17-ODYA, 17-Octadecynoic acid]	reduce 20-HETE levels in vivo		
CS(=O)(=O)NC(=O)CCCCCCCCCC=C(Br)Br [DDMS, dibromododecenyl methylsulfonimide]		47	63 BrdU(+) cells
O=C(O)CCCC/C=C\CCCCCCC/C=C\CCCCO [WIT-002, 20-hydroxyeicosa-6(Z),15(Z)-dienoic acid]		25	
